Publication PMC7394005, “Assessing the Selectivity of FXR, LXRs, CAR, and RORγ Pharmaceutical Ligands With Reporter Cell Lines” (Frontiers in Pharmacology, 2020)
Like-named read-outs stand apart in the source and are kept apart here.

Tests used:
Type in all cases: cell-based
human RORγ = molecular target: T1, human RORγ (Homo sapiens, UniProt P51449); assay: HG5LN GAL4-RORγ reporter cell line, agonist mode in presence of SR2211; conditions: in presence of SR2211 1 mM, NE = No effect; for EC50: read-out: RORγ (SR2211 1 mM) EC50
T1 construct: RORγ (S97-K518); expressed in transfected cells; host or cells: HG5LN (HeLa cells carrying the (GAL4RE)5-βGlob-Luc-SVNeo reporter)
T1 sequence (P51449 97-518): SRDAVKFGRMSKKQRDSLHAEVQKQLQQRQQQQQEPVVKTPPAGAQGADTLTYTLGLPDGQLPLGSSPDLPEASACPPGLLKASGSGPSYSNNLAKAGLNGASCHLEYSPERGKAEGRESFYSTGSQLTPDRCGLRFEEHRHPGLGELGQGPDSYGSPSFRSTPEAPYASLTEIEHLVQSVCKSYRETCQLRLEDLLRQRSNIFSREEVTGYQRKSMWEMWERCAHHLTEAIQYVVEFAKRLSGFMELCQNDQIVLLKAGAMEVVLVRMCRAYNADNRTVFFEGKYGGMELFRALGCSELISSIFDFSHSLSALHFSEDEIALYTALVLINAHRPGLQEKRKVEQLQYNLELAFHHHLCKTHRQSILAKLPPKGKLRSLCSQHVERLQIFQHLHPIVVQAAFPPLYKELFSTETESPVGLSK
Text: (§1) To construct GAL4-NR chimeras, individual LBDs of human FXR (R193-Q486), LXRα (A187-E447), LXRβ (G199-E461), CAR (M76-S348), and RORγ (S97-K518) were amplified by PCR with primers containing XhoI and SacI restriction sites (FXR), XhoI and BamHI (LXRs, CAR, RORγ) and inserted in pSG5-GAL4(DBD)-puromycin plasmid. To construct GAL4-CAR (+ APYLT) (M76-S353), the five amino acids APYLT were inserted by overlap extension PCR between amino acids P270 and D271 of CAR.
(§2) To characterize the specificity of chemicals for human FXR, LXRα, LXRβ, CAR and RORγ, we established in a similar manner HG5LN FXR, LXRα, LXRβ, CAR WT, CAR (APYLT) and RORγ reporter cell lines. […] These cells were stably transfected by pSG5-GAL4 (DBD)-NRs (LBD)-puromycin plasmid and selected in presence of 0.5 µg/ml puromycin. […] From each HG5LN NR cells, 5 to 10 clones were chosen for their ligand inducibility of luciferase expression. […] The most inducible clones were expanded and rechecked for inducibility and aliquots were frozen at different passages. One clone per receptor was maintained in culture and used for ligand screening. HG5LN cells were cultured in Dulbecco’s modified Eagle’s medium (DMEM): Nutrient Mixture F-12 (DMEM/F-12) containing phenol red and 1 g/l glucose and supplemented with 5% fetal bovine serum, 100 units/ml of penicillin, 100 µg/ml of streptomycin and 1 mg/ml geneticin, in 5% CO2 humidified atmosphere at 37°C. Stably transfected cell lines derived from HG5LN cells were cultured in the same culture medium supplemented with 0.5 µg/ml puromycin.
(§3) Individual reporter cell lines were seeded at a density of 40,000 cells per well in 96-well white opaque tissue culture plates (Greiner CellStar) in Dulbecco’s Modified Eagle Medium: Nutrient Mixture F-12 (DMEM/F-12) without phenol red and 1 g/l glucose and supplemented with 5% stripped fetal bovine serum, 100 units/ml of penicillin, 100 µg/ml of streptomycin (test medium). Chemicals to be tested were added 24h later, and cells were incubated at 37°C for 16h. Experiments were performed in quadruplicates. At the end of the incubation period, culture medium was replaced with test medium containing 0.3 mM luciferin solution. Luciferase activity was measured for 2s in intact living cells after 10 min stabilization using a Micro Beta Wallac luminometer (PerkinElmer). EC50 values were calculated using GraphPad Prism (GraphPad Software Inc).
(§4) Chemicals tested for agonism on FXR, LXRs, CAR (+ APYLT), PXR, and antagonism on CAR and RORγ were tested alone, without addition of any other ligand.
(§5) In the transactivation assay, each compound was tested at various concentrations in three independent experiments at least. For each experiment, tests were performed in quadruplicates for each concentration, and data are expressed by means values with standard deviations. Individual agonist dose–response curves, in the absence and presence of antagonist, were fitted using the sigmoid dose-response function of a graphics and statistics software program (GraphPad Prism, version 5.0). EC50 (effective concentration for half-maximal luciferase activity) and IC50 (half-maximal inhibitory concentration) values were calculated from equations used to fit the data in this graphic software. Transactivation data are presented as EC50 and IC50 values for each compound tested. To analyze significances, we compared individual compound treatments with controls using one-way analysis of variance (ANOVA) with the help of GraphPad Prism software.

human LXRα = molecular target: T2, human LXRα (Homo sapiens, UniProt Q13133); assay: HG5LN GAL4-LXRα reporter cell line, agonist mode; conditions: for LXRα % max act: maximal luciferase activity at 10^-5 M (10^-6 M for * and 3 10^-6 M for ** compounds), 100% = 1 µM T0901317, DMSO 8 ± 1
T2 construct: LXRα (A187-E447); expressed in transfected cells; host or cells: HG5LN (HeLa cells carrying the (GAL4RE)5-βGlob-Luc-SVNeo reporter)
T2 sequence (Q13133 187-447): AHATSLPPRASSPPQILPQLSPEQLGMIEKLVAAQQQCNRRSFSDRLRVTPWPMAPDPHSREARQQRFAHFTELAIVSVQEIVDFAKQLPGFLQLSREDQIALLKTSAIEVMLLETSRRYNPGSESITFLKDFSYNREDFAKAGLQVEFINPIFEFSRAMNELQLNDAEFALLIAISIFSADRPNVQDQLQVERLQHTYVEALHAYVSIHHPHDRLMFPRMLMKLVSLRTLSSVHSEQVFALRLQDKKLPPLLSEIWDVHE
Text: as §1, §2, §3, §4, §5

human LXRβ [1] = molecular target: T3, human LXRβ (Homo sapiens, UniProt P55055); assay: HG5LN GAL4-LXRβ reporter cell line, agonist mode; conditions: for LXRβ % max act: maximal luciferase activity at 10^-5 M (10^-6 M for * and 3 10^-6 M for ** compounds), 100% = 1 µM T0901317, DMSO 9 ± 2
T3 construct: LXRβ (G199-E461); expressed in transfected cells; host or cells: HG5LN (HeLa cells carrying the (GAL4RE)5-βGlob-Luc-SVNeo reporter)
T3 sequence (P55055 198-460 limits assumed): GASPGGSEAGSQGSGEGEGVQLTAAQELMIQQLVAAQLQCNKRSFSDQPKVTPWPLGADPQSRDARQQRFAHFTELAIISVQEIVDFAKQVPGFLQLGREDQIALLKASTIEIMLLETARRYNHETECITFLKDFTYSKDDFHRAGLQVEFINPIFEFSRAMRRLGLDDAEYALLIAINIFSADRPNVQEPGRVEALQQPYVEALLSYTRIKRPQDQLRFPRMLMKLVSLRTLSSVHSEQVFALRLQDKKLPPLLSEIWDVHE
Text: as §1, §2, §3, §4, §5

human LXRβ [2] = molecular target: T3, human LXRβ; assay: HG5LN GAL4-LXRβ reporter cell line, antagonist mode in presence of T0901317; conditions: for LXRβ (T0901317 100 nM) % min act: in presence of T0901317 100 nM (80% of maximal activity), at 10^-5 M (10^-6 M *, 3 10^-6 M **)
Text: as §1, §2, §3, §4, §5

[3] = HG5LN GAL4-LXRα cells, tested alone, NE = No effect, read-out: LXRα EC50
[4] = HG5LN GAL4-LXRβ cells, tested alone, NE = No effect, read-out: LXRβ EC50
[5] = read-out: LXRβ (T0901317 100 nM) IC50, in presence of T0901317 100 nM, NE = No effect

Compound	EC50 (human RORγ) [µM]	EC50 (human LXRα; [3]) [µM]	EC50 (human LXRβ [1]; [4]) [µM]	IC50 (human LXRβ [2]; [5]) [µM]	other results
CCOC(=O)Nc1ccc2c(c1)N(C(=O)CN(CC)CC)c1ccccc1CC2 [CINPA1]	> 10	> 10	> 10	> 10	
Clc1ccc(-c2nc3sccn3c2/C=N/OCc2ccc(Cl)c(Cl)c2)cc1 [CITCO]	> 10	> 10	> 10	> 10	
Clc1ccccc1C(c1ccccc1)(c1ccccc1)n1ccnc1 [Clotrimazole, clotrimazole]	> 10	> 10	> 10	> 10	
COc1cccc(Cn2cc(C(=O)Nc3ccc(C)c(S(=O)(=O)N4CCOCC4)c3)c(-c3ccc(C)cc3)n2)c1 [DY268]	> 10	> 10	> 10	> 10	
CC(C)(C)c1nc(-c2cccc(NS(=O)(=O)c3c(F)cccc3F)c2F)c(-c2ccnc(N)n2)s1 [Dabrafenib]	> 10	> 10	> 10	> 10	
COC(=O)/C=C/c1cccc(N(Cc2ccc(-c3ccc(N(C)C)cc3)cc2)C(=O)C2CCCCC2)c1 [Feraxamine]	> 10	> 10	> 10	> 10	
Cc1cc(C)c(S(=O)(=O)N(Cc2ccc(-c3cccc(S(C)(=O)=O)c3)cc2)Cc2ccc(C(F)(F)F)o2)c(C)c1 [GSK2033]	> 10				IC50 (human LXRβ [2]): 0.01 ± 0.003 µM; LXRβ (T0901317 100 nM) % min act (human LXRβ [2]; NE = No effect): 2%
Cc1oc2ccccc2c1CNC(=O)NCc1cccs1 [S07662]	> 10	> 10	> 10	> 10	
O=C(Nc1ccc(C(O)(C(F)(F)F)C(F)(F)F)cc1)c1ccccc1Cl [SR0987]		> 10	> 10	> 10	
O=C(Nc1ccc(C(O)(C(F)(F)F)C(F)(F)F)cc1)c1ccc(C(F)(F)F)cc1 [SR1078]	2.09 ± 0.131	> 10	> 10	> 10	RORγ (SR2211 1 mM) % max act (human RORγ; 100% = constitutive activity, DMSO 56 ± 5, at 10^-5 M (10^-6 M *, 3 10^-6 M **)): 75%
CCOC(=O)c1ccc(CN(Cc2ccc(-c3cccc(S(C)(=O)=O)c3)cc2)S(=O)(=O)c2c(C)cc(C)cc2C)o1 [SR9238]	> 10				IC50 (human LXRβ [2]): 0.005 ± 0.001 µM; LXR β-subtype specificity (fold, over α subtype) (human LXRβ [2]; from IC50 values on LXRα and LXRβ): 5 fold; LXRβ (T0901317 100 nM) % min act (human LXRβ [2]; NE = No effect): 1%
Fc1ccc(-c2c3cccc(C(F)(F)F)c3nn2Cc2ccc(F)cc2Cl)cc1 [WAY252623]	> 10				EC50 (human LXRα): 0.595 ± 0.068 µM; LXRα % max act (human LXRα; NE = No effect): 67%; EC50 (human LXRβ [1]): 0.321 ± 0.071 µM; LXRβ % max act (human LXRβ [1]; NE = No effect): 72%
SPA70	> 10	> 10	> 10	> 10	

More lines, main results first:

EC50 (human RORγ) [µM]	EC50 (human LXRα; [3]) [µM]	EC50 (human LXRβ [1]; [4]) [µM]	IC50 (human LXRβ [2]; [5]) [µM]	Compound	other results
> 10	0.176 ± 0.048	0.015 ± 0.006		O=C(O)Cc1cccc(OCCCN(Cc2cccc(C(F)(F)F)c2Cl)CC(c2ccccc2)c2ccccc2)c1 [GW3965]	LXRα % max act (human LXRα; NE = No effect): 98%; LXRβ specificity (fold, over LXRα) (human LXRβ [1]; from EC50 values on LXRα and LXRβ): 12 fold; LXRβ % max act (human LXRβ [1]; NE = No effect): 100%
> 10	> 10	> 10	> 10	CC(C)c1onc(-c2c(Cl)cccc2Cl)c1COc1ccc(/C=C/c2cccc(C(=O)O)c2)c(Cl)c1 [GW4064]	
	> 10	> 10	> 10	CC(=O)Nc1nc(C)c(S(=O)(=O)Nc2ccc(C(O)(C(F)(F)F)C(F)(F)F)cc2)s1 [SR1001]	
> 10				Cc1cc(C)c(S(=O)(=O)N(CCc2cccc(Br)c2)Cc2ccc(-c3cccc(S(C)(=O)=O)c3)cc2)c(C)c1 [SR9243]	IC50 (human LXRβ [2]): 0.059 ± 0.013 µM; LXRβ (T0901317 100 nM) % min act (human LXRβ [2]; NE = No effect): 2%
> 10	> 10	> 10	> 10	CCOP(=O)(OCC)C(=Cc1cc(C(C)(C)C)c(O)c(C(C)(C)C)c1)P(=O)(OCC)OCC [SR12813]	
